# Assay results: PubChem BioAssay AID1963981 (Molecular Pharmacology Branch, DTP, NCI, 2024)
# Test system: 354836-022-R-J1-PDC multicell spheroid viability
# Assay: Anticancer human tumor 354836-022-R-J1-PDC patient-derived head and neck squamous cell carcinoma cell line growth inhibition [PI3K]
# Settings: for IC50: curve of first compound; for viability, T/C: stronger effect = lower value
# Method in brief: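 Combination activity was assessed by viability in multicellular tumor spheroids carrying HUVEC and MSC components. Agents were tested with PI3K inhibitors from a Cmax-based top dose (or 10 microM) downward in half-log increments.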
# [1] = second compound 0.0316 µM, first compound 0.000316 µM
# [2] = second compound 0.0316 µM, first compound 0.001 µM
# [3] = second compound 0.0316 µM, first compound 0.00316 µM
# [4] = second compound 0.0316 µM, first compound 0.01 µM
# [5] = second compound 0.0316 µM, first compound 0.0316 µM
# [6] = second compound 0.0316 µM, first compound 0.1 µM
# [7] = second compound 0.1 µM, first compound 0.000316 µM
# [8] = second compound 0.1 µM, first compound 0.001 µM
# [9] = second compound 0.1 µM, first compound 0.00316 µM
# [10] = second compound 0.1 µM, first compound 0.01 µM
# [11] = second compound 0.1 µM, first compound 0.0316 µM
# [12] = second compound 0.1 µM, first compound 0.1 µM
# [13] = second compound 0.316 µM, first compound 0.000316 µM
# [14] = second compound 0.316 µM, first compound 0.001 µM
# [15] = second compound 0.316 µM, first compound 0.00316 µM
# [16] = second compound 0.316 µM, first compound 0.01 µM
# [17] = second compound 0.316 µM, first compound 0.0316 µM
# [18] = second compound 0.316 µM, first compound 0.1 µM
# [19] = second compound 1 µM, first compound 0.000316 µM
# [20] = second compound 1 µM, first compound 0.001 µM
# [21] = second compound 1 µM, first compound 0.00316 µM
# [22] = second compound 1 µM, first compound 0.01 µM
# [23] = second compound 1 µM, first compound 0.0316 µM
# [24] = second compound 1 µM, first compound 0.1 µM
# [25] = second compound 3.16 µM, first compound 0.000316 µM
# [26] = second compound 3.16 µM, first compound 0.001 µM
# [27] = second compound 3.16 µM, first compound 0.00316 µM
# [28] = second compound 3.16 µM, first compound 0.01 µM
# [29] = second compound 3.16 µM, first compound 0.0316 µM
# [30] = second compound 3.16 µM, first compound 0.1 µM
# [31] = second compound 10 µM, first compound 0.000316 µM
# [32] = second compound 10 µM, first compound 0.001 µM
# [33] = second compound 10 µM, first compound 0.00316 µM
# [34] = second compound 10 µM, first compound 0.01 µM
# [35] = second compound 10 µM, first compound 0.0316 µM
# [36] = second compound 10 µM, first compound 0.1 µM
# 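Note: spheroids exposed to agents for seven days before the viability read.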
compound,measurement,setting,value
CC(=O)c1c(C)c2cnc(Nc3ccc(N4CCNCC4)cn3)nc2n(C2CCCC2)c1=O + CC(Nc1ncnc2nc[nH]c12)c1cc2cccc(Cl)c2c(=O)n1-c1ccccc1,IC50,second compound 0.0316 µM,> 100 nM
same,IC50,second compound 0.1 µM,> 100 nM
same,IC50,second compound 0.316 µM,> 100 nM
same,IC50,second compound 1 µM,> 100 nM
same,IC50,second compound 3.16 µM,> 100 nM
same,IC50,second compound 10 µM,> 100 nM
same,"viability, T/C",[1],96.8%
same,"viability, T/C",[2],110%
same,"viability, T/C",[3],108%
same,"viability, T/C",[4],103%
same,"viability, T/C",[5],97.7%
same,"viability, T/C",[6],99.5%
same,"viability, T/C",[7],89.4%
same,"viability, T/C",[8],99.3%
same,"viability, T/C",[9],94.9%
same,"viability, T/C",[10],91.5%
same,"viability, T/C",[11],105%
same,"viability, T/C",[12],101%
same,"viability, T/C",[13],90%
same,"viability, T/C",[14],98.8%
same,"viability, T/C",[15],100%
same,"viability, T/C",[16],100%
same,"viability, T/C",[17],111%
same,"viability, T/C",[18],113%
same,"viability, T/C",[19],82.2%
same,"viability, T/C",[20],96.7%
same,"viability, T/C",[21],97.2%
same,"viability, T/C",[22],110%
same,"viability, T/C",[23],96.8%
same,"viability, T/C",[24],91.6%
same,"viability, T/C",[25],108%
same,"viability, T/C",[26],107%
same,"viability, T/C",[27],98.5%
same,"viability, T/C",[28],104%
same,"viability, T/C",[29],88.3%
same,"viability, T/C",[30],90.2%
same,"viability, T/C",[31],89.8%
same,"viability, T/C",[32],95.2%
same,"viability, T/C",[33],91.1%
same,"viability, T/C",[34],109%
same,"viability, T/C",[35],98.8%
same,"viability, T/C",[36],91.5%
CC(C)n1nc(-c2ccc3oc(N)nc3c2)c2c(N)ncnc21 + CC(Nc1ncnc2nc[nH]c12)c1cc2cccc(Cl)c2c(=O)n1-c1ccccc1,IC50,second compound 0.0316 µM,15.5 nM
same,IC50,second compound 0.1 µM,21.7 nM
same,IC50,second compound 0.316 µM,16.4 nM
same,IC50,second compound 1 µM,15.5 nM
same,IC50,second compound 3.16 µM,19.3 nM
same,IC50,second compound 10 µM,16.8 nM
same,"viability, T/C",[1],88.2%
same,"viability, T/C",[2],96.5%
same,"viability, T/C",[3],79.9%
same,"viability, T/C",[4],57%
same,"viability, T/C",[5],35.3%
same,"viability, T/C",[6],5.53%
same,"viability, T/C",[7],97.8%
same,"viability, T/C",[8],102%
same,"viability, T/C",[9],81.1%
same,"viability, T/C",[10],86.3%
same,"viability, T/C",[11],32.8%
same,"viability, T/C",[12],4.44%
same,"viability, T/C",[13],92.6%
same,"viability, T/C",[14],101%
same,"viability, T/C",[15],80.7%
same,"viability, T/C",[16],61.2%
same,"viability, T/C",[17],34.9%
same,"viability, T/C",[18],6.09%
same,"viability, T/C",[19],113%
same,"viability, T/C",[20],98.2%
same,"viability, T/C",[21],92.7%
same,"viability, T/C",[22],59.5%
same,"viability, T/C",[23],31.6%
same,"viability, T/C",[24],5.81%
same,"viability, T/C",[25],105%
same,"viability, T/C",[26],99%
same,"viability, T/C",[27],73.1%
same,"viability, T/C",[28],68.1%
same,"viability, T/C",[29],40.9%
same,"viability, T/C",[30],5.66%
same,"viability, T/C",[31],95.5%
same,"viability, T/C",[32],101%
same,"viability, T/C",[33],89.2%
same,"viability, T/C",[34],62.7%
same,"viability, T/C",[35],33.3%
same,"viability, T/C",[36],6.25%
CCCS(=O)(=O)Nc1ccc(F)c(C(=O)c2c[nH]c3ncc(-c4ccc(Cl)cc4)cc23)c1F + CC(Nc1ncnc2nc[nH]c12)c1cc2cccc(Cl)c2c(=O)n1-c1ccccc1,IC50,second compound 0.0316 µM,5950 nM
same,IC50,second compound 0.1 µM,5790 nM
same,IC50,second compound 0.316 µM,6710 nM
same,IC50,second compound 1 µM,5500 nM
same,IC50,second compound 3.16 µM,6290 nM
same,IC50,second compound 10 µM,5980 nM
same,"viability, T/C",[5],94.8%
same,"viability, T/C",[6],108%
same,"viability, T/C","second compound 0.0316 µM, first compound 0.316 µM",98.4%
same,"viability, T/C","second compound 0.0316 µM, first compound 1 µM",107%
same,"viability, T/C","second compound 0.0316 µM, first compound 3.16 µM",88.8%
same,"viability, T/C","second compound 0.0316 µM, first compound 10 µM",17.8%
same,"viability, T/C",[11],99.8%
same,"viability, T/C",[12],99.8%
same,"viability, T/C","second compound 0.1 µM, first compound 0.316 µM",109%
same,"viability, T/C","second compound 0.1 µM, first compound 1 µM",105%
same,"viability, T/C","second compound 0.1 µM, first compound 3.16 µM",83.8%
same,"viability, T/C","second compound 0.1 µM, first compound 10 µM",19.7%
same,"viability, T/C",[17],98%
same,"viability, T/C",[18],106%
same,"viability, T/C","second compound 0.316 µM, first compound 0.316 µM",125%
same,"viability, T/C","second compound 0.316 µM, first compound 1 µM",104%
same,"viability, T/C","second compound 0.316 µM, first compound 3.16 µM",110%
same,"viability, T/C","second compound 0.316 µM, first compound 10 µM",18.9%
same,"viability, T/C",[23],103%
same,"viability, T/C",[24],93.9%
same,"viability, T/C","second compound 1 µM, first compound 0.316 µM",111%
same,"viability, T/C","second compound 1 µM, first compound 1 µM",94.5%
same,"viability, T/C","second compound 1 µM, first compound 3.16 µM",81.1%
same,"viability, T/C","second compound 1 µM, first compound 10 µM",16.6%
same,"viability, T/C",[29],114%
same,"viability, T/C",[30],111%
same,"viability, T/C","second compound 3.16 µM, first compound 0.316 µM",105%
same,"viability, T/C","second compound 3.16 µM, first compound 1 µM",106%
same,"viability, T/C","second compound 3.16 µM, first compound 3.16 µM",92.9%
same,"viability, T/C","second compound 3.16 µM, first compound 10 µM",21.1%
same,"viability, T/C",[35],89.7%
same,"viability, T/C",[36],96%
same,"viability, T/C","second compound 10 µM, first compound 0.316 µM",94.2%
same,"viability, T/C","second compound 10 µM, first compound 1 µM",88.7%
same,"viability, T/C","second compound 10 µM, first compound 3.16 µM",92.6%
same,"viability, T/C","second compound 10 µM, first compound 10 µM",16%
